Patent US20230381142A1, “ANTILEISHMANIAL COMPOUNDS, COMPOSITIONS AND USE THEREOF” (TRUSTEES OF BOSTON UNIVERSITY, priority 2022, published 2023)
Where two headings read alike, the source gives them in different places.

Experiments:
[1] = test system: L. donovani intracellular amastigotes infecting THP-1 macrophages; test: GSK intramacrophage L. donovani assay (LD AMMAC, inMac; Assay Conditions C); type: cell-based; conditions: Leishmania donovani
Procedure: Assay Conditions C: The intramacrophage Leishmania donovani activity assay was performed as described in Antimicrob Agents Chemother (2013) 57(7):2913-22.
(§1) The intramacrophage Leishmania donovani activity assay (LD AMMAC) at GlaxoSmithKline was performed as described.
(§2) Given the literature precedents described above and the apparent narrow tolerance for R^3 substitutions observed in the primary screen compounds, a thorough and methodical assessment was undertaken of tolerated groups at the three points of diversity (R^1/R^2/R^3) for the core. At this stage of the project, all analogues were assessed using a battery of assays performed in-house at GlaxoSmithKline. For antileishmanial activity, GSK's inMac assay was utilized. This assay provides two readouts of compound potency: average number of intracellular amastigotes per infected cell (AMMAC) EC50, percentage of infected cells per well (INFCELL) EC50, as well as a toxicity output derived from the number of host cells (MAC EC50). In addition, compounds were assessed for toxicity against HepG2 cells (HEPG2 EC50). Here, AMMAC EC50 values were focused on for relative potency assessments. […] It should be noted that for all compounds assessed in this project, the measured toxicity against THP-1 macrophages either equaled or exceeded that of HepG2 hepatocytes, therefore the MAC SI is used here as the more conservative estimate of therapeutic index.

[2] = GSK inMac assay, host cell toxicity readout (LD MAC); type: cell-based, human; conditions: human
Procedure: as §1, §2

[3] = THP-1 cells, values marked c, read-out: L. donovani amastigotes EC50 (THP-1 cells)
[4] = footnote c, read-out: THP-1 Host Cell CC50
[5] = values marked c: THP-1 cells, read-out: L. donovani amastigotes EC50 (μM, THP-1 or B10R cells)

Structure (SMILES) | EC50 [1, 3] | CC50 [2, 4] | EC50 [1, 5] | CC50 ([2]; host THP-1 cells)
COc1ccc(N2C(=O)c3[nH]nc(CC(C)C)c3C2c2cccc(F)c2)cc1 (centres unmarked) [CMLD010890] | 5 µM | 12.6 µM |  | 
COc1ccc(N2C(=O)c3[nH]nc(CC(C)C)c3C2c2cccc(Br)c2)cc1 (centres unmarked) [CMLD010891] | 7.9 µM | 25.1 µM |  | 
COc1ccc(N2C(=O)c3[nH]nc(CC(C)C)c3C2C2CCCCC2)cc1 (centres unmarked) [CMLD010892] | 7.9 µM | 25.1 µM |  | 
COc1ccc(N2C(=O)c3[nH]nc(CC(C)C)c3C2c2ccccc2Br)cc1 (centres unmarked) [CMLD010894] | 0.5 µM | 25.1 µM |  | 
COc1cccc(N2C(=O)c3[nH]nc(CC(C)C)c3C2c2ccc(F)cc2)c1 (centres unmarked) [CMLD010895] | 12.6 µM | 31.6 µM |  | 
COc1cc(N2C(=O)c3[nH]nc(CC(C)C)c3C2c2ccc(F)cc2)cc(OC)c1OC (centres unmarked) [CMLD010896] | 4 µM | 3.2 µM |  | 
CC(C)Cc1n[nH]c2c1C(c1ccc(F)cc1)N(c1ccc(Br)cc1)C2=O (centres unmarked) [CMLD010897] | 1.3 µM | 15.9 µM |  | 
COc1ccc(N2C(=O)c3[nH]nc(CC(C)C)c3C2c2cccc(C(F)(F)F)c2)cn1 (centres unmarked) [CMLD010898] | 2 µM | 20 µM |  | 
CCc1ccc(N2C(=O)c3[nH]nc(CC(C)C)c3C2c2ccc(F)cc2)cc1 (centres unmarked) [CMLD010899] | 4 µM | 20 µM |  | 
CCOc1ccc(N2C(=O)c3[nH]nc(CC(C)C)c3C2c2ccc(F)cc2)cc1 (centres unmarked) [CMLD010900] | 1.6 µM | 20 µM |  | 
COc1ccc(N2C(=O)c3[nH]nc(CC(C)C)c3C2C2CCCCC2)cn1 (centres unmarked) [CMLD010903] | 20 µM | 31.6 µM |  | 
CC(C)Cc1n[nH]c2c1C(c1cccc(C(F)(F)F)c1)N(c1ccc(-n3ccnc3)cc1)C2=O (centres unmarked) [CMLD010924] |  |  | ≥ 50.1 µM | 39.8 µM
CC(C)Cc1n[nH]c2c1C(c1cccc(C(F)(F)F)c1)N(c1ccc(N(C)C)cc1)C2=O (centres unmarked) [CMLD010925] | 7.9 µM | 20 µM |  | 
Cc1cc(F)ccc1C1c2c(CC(C)C)n[nH]c2C(=O)N1c1ccc(-n2ccnc2)cc1 (centres unmarked) [CMLD010926] | 1.3 µM | 25.1 µM |  | 
COc1ccc(N2C(=O)c3[nH]nc(CC(C)C)c3[C@@H]2c2ccc(F)cc2C)cc1 [CMLD010949] | 0.5 µM | 39.8 µM |  | 
COc1ccc(N2C(=O)c3[nH]nc(CC(C)C)c3[C@H]2c2ccc(F)cc2C)cc1 [CMLD010950] | 6.3 µM | 31.6 µM |  | 
COc1ccc(N2C(=O)c3[nH]nc(CC(C)C)c3[C@@H]2c2ccccc2Br)cn1 [CMLD010976] | 1 µM | 20 µM |  | 
COc1ccc(N2C(=O)c3[nH]nc(CC(C)C)c3C2C2CCCC2)cc1 (centres unmarked) [CMLD010978] | 12.6 µM | 20 µM |  | 
COc1ccc(N2C(=O)c3[nH]nc(-c4ccc(CC(C)C)cc4)c3C2c2ccc(F)cc2)cc1 (centres unmarked) [CMLD010979] | 4 µM | 7.9 µM |  | 
COc1ccc(N2C(=O)c3[nH]nc(-c4ccc5c(c4)CCC5)c3C2c2ccc(F)cc2)cc1 (centres unmarked) [CMLD010980] | 5 µM | 7.9 µM |  | 
COc1ccc(N2C(=O)c3[nH]nc(CCC=C(C)C)c3C2c2ccc(F)cc2)cc1 (centres unmarked) [CMLD010981] | 6.3 µM | 20 µM |  | 
CCCn1nc(CC(C)C)c2c1C(=O)N(c1ccc(OC)cc1)C2c1ccc(F)cc1 (centres unmarked) [CMLD010982] | 5 µM | 25.1 µM |  | 
C=CCn1nc2c(c1CC(C)C)C(c1ccc(F)cc1)N(c1ccc(OC)cc1)C2=O (centres unmarked) [CMLD010984] |  |  | 6.3 µM | 31.6 µM
C=CCn1nc(CC(C)C)c2c1C(=O)N(c1ccc(OC)cc1)C2c1ccc(F)cc1 (centres unmarked) [CMLD010985] | 2.5 µM | 31.6 µM |  | 
COc1ccc(N2C(=O)c3nn(C)c(CC(C)C)c3C2c2ccc(F)cc2)cc1 (centres unmarked) [CMLD010988] |  |  | 7.9 µM | 25.1 µM
COc1ccc(N2C(=O)c3c(c(CC(C)C)nn3C)C2c2ccc(F)cc2)cc1 (centres unmarked) [CMLD010989] | 1.6 µM | 25.1 µM |  | 

Structure (SMILES) | EC50 [1, 3] | CC50 [2, 4] | EC50 [1, 5] | CC50 ([2]; host THP-1 cells)
CCCn1nc2c(c1CC(C)C)C(c1ccc(F)cc1)N(c1ccc(OC)cc1)C2=O (centres unmarked) [CMLD010990] |  |  | 7.9 µM | 25.1 µM
COc1ccc(N2C(=O)c3[nH]nc(CC(C)C)c3C2c2cncs2)cc1 (centres unmarked) [CMLD010991] | 15.9 µM | > 50 µM |  | 
COc1ccc(N2C(=O)c3[nH]nc(CC(C)C)c3C2c2ccc(F)cc2)c(OC)c1 (centres unmarked) [CMLD010992] | 20 µM | 31.6 µM |  | 
CC(C)Cc1n[nH]c2c1[C@H](c1ccc(F)cc1)N(c1ccc3ncnn3c1)C2=O [CMLD010993] | 10 µM | 25.1 µM |  | 
COc1ccc(N2C(=O)c3[nH]nc(CC(C)C)c3C2c2ccccc2OC)cc1 (centres unmarked) [CMLD010994] | 0.5 µM | 25.1 µM |  | 
COc1ccc(N2C(=O)c3[nH]nc(CC(C)C)c3C2c2cc(C(F)(F)F)ccc2C(F)(F)F)cc1 (centres unmarked) [CMLD010996] | 6.3 µM | 25.1 µM |  | 
CC(C)Cc1n[nH]c2c1C(c1ccccc1Cl)N(c1ccc(-n3ccnc3)cc1)C2=O (centres unmarked) [CMLD010998] | 6.3 µM | ≥ 50.1 µM |  | 
C=CCCc1n[nH]c2c1C(c1ccc(F)cc1)N(c1ccc(OC)cc1)C2=O (centres unmarked) [CMLD011024] | 1.6 µM | 3.2 µM |  | 
C=C(C)CCc1n[nH]c2c1C(c1ccc(F)cc1)N(c1ccc(OC)cc1)C2=O (centres unmarked) [CMLD011025] | 0.5 µM | 1.6 µM |  | 
COc1ccc(CN2C(=O)c3[nH]nc(CC(C)C)c3C2c2ccc(F)cc2)cc1 (centres unmarked) [CMLD011026] | 12.6 µM | 31.6 µM |  | 
COc1ccc(N2C(=O)c3[nH]nc(CC(C)C)c3C2c2ccc(OC)nc2)cc1 (centres unmarked) [CMLD011027] | > 50 µM | > 50 µM |  | 
COc1ccc(N2C(=O)c3[nH]nc(CC(C)C)c3C2c2cc(F)nc(F)c2)cc1 (centres unmarked) [CMLD011028] | > 50 µM | > 50 µM |  | 
CC(C)Cc1n[nH]c2c1C(c1ccc(F)cc1)N(c1ccc(O)cc1)C2=O (centres unmarked) [CMLD011029] | 5 µM | 39.8 µM |  | 
CC(C)Cc1n[nH]c2c1C(c1ccc(F)cc1)N(C1CCOCC1)C2=O (centres unmarked) [CMLD011030] | 31.6 µM | > 50 µM |  | 
CC(C)Cc1n[nH]c2c1C(c1ccc(F)cc1)N(c1ccc(C(=O)O)cc1)C2=O (centres unmarked) [CMLD011031] | > 50 µM | > 50 µM |  | 
COc1ccc(N2C(=O)c3[nH]nc(CC(C)C)c3C2c2ccc(C(=O)O)cc2)cc1 (centres unmarked) [CMLD011032] | > 50 µM | > 50 µM |  | 
COC(=O)c1ccc(N2C(=O)c3[nH]nc(CC(C)C)c3C2c2ccc(F)cc2)cc1 (centres unmarked) [CMLD011033] | 1.6 µM | 31.6 µM |  | 
COC(=O)c1ccc(C2c3c(CC(C)C)n[nH]c3C(=O)N2c2ccc(OC)cc2)cc1 (centres unmarked) [CMLD011034] | 25.1 µM | 39.8 µM |  | 
CCC(C)(COC(C)=O)CN1C(=O)c2[nH]nc(CC(C)C)c2C1c1ccc(F)cc1 (centres unmarked) [CMLD011035] | 5 µM | 25.1 µM |  | 
CO[C@H]1CC[C@H](N2C(=O)c3[nH]nc(CC(C)C)c3C2c2ccc(F)cc2)CC1 (some centres unmarked) [CMLD011036] | 25.1 µM | > 50 µM |  | 
CC(=O)OCC(CO)N1C(=O)c2[nH]nc(CC(C)C)c2C1c1ccc(F)cc1 (centres unmarked) [CMLD011037] |  |  | ≥ 50.1 µM | ≥ 50.1 µM
CC(C)Cc1n[nH]c2c1C(c1ccc(F)cc1)N(CC(C)(CO)CO)C2=O (centres unmarked) [CMLD011038] |  |  | ≥ 50.1 µM | ≥ 50.1 µM
COc1ccc(OC)c(N2C(=O)c3[nH]nc(CC(C)C)c3C2c2ccc(F)cc2)c1 (centres unmarked) [CMLD011040] | 25.1 µM | ≥ 50.1 µM |  | 
CC(C)Cc1n[nH]c2c1C(C1CCCCC1)N(c1ccc(C(C)(C)C)cc1)C2=O (centres unmarked) [CMLD011042] | 2.5 µM | ≥ 50.1 µM |  | 
CC(C)Cc1n[nH]c2c1C(C1CCCCC1)N(c1ccc3c(c1)OCO3)C2=O (centres unmarked) [CMLD011043] | 5 µM | 15.8 µM |  | 
COc1cccc(N2C(=O)c3[nH]nc(CC(C)C)c3C2C2CCCCC2)c1 (centres unmarked) [CMLD011044] |  |  | 6.3 µM | ≥ 50.1 µM
